# Source: patent US5698575A, “Chromone compounds, pharmaceutical compositions containing the same, and use of the same” (Kureha Chemical Industry Co., Ltd., priority 1995, dated 1997)
# Experiments:
# Wistar rat = experiment: Acute toxicity of chromone derivative, oral, rats; type: in vivo; conditions: male rats, 500 mg/kg orally
# Protocol: (§1) The acute toxicity of the chromone derivative of the present invention was evaluated, for Crj:CD-1(ICR) mice (male; 6 weeks old) and Wistar rat (male; 6 weeks old). […] In the experiments as above, two animals were used for each group.
# Crj:CD-1(ICR) mice = experiment: Acute toxicity of chromone derivative, oral, mice; type: in vivo, mouse; conditions: male mice, 500 mg/kg orally
# Protocol: as §1
# [1] = system: Mouse melanoma (B16-BL6) cells; experiment: Antitumor activity to mouse melanoma-cells-implanted mouse; type: in vivo; conditions: 100 mg/kg orally once a day for 13 days, C57BL/6N mice
# Protocol: Mouse melanoma (B16-BL6) cells were subcutaneously implanted in the amount 1×10^6 cells in C57BL/6N mice (6 weeks old, male) at the axillary fossa. From the day after the implantation, 2-pyrrolylthiochromone was orally administered once a day for 13 days. The composition to be administered was preparedby dissolving 2-pyrrolylthiochromone powder in sesame oil, and administered at the dose of 100 mg of the compound per 1 kg of the mouse body weight. The amount of sesame oil administered was 10 ml/kg of the mouse body weight. To the control group, only sesame oil was administered. At the next day of the last administration day, the mice were sacrificed, and the weight of the tumor was measured. For the control group where the present compound was not administered, five mice were used, whereas 6 mice were used for the group where the present compound was administered.
Compound,change in general state and body weight in comparison with the control group (Wistar rat; observed for 7 days),remarkable toxicity (Wistar rat; observed for seven days),change in general state and body weight in comparison with the control group (Crj:CD-1(ICR) mice; observed for 7 days),remarkable toxicity (Crj:CD-1(ICR) mice; observed for seven days),decrease in the body weight due to the administration [1],"inhibitory activity for the tumor growth (tumor weight) in comparison with the control group ([1]; B16-BL6 subcutaneous, FIG. 3) [%]"
"COc1cc(OC)c2c(=O)cc(-n3cnc4ccccc43)oc2c1 [2-benzimidazolyl-5,7-dimethoxychromone]",no change was observed,no remarkable toxicity,no change was observed,no remarkable toxicity,–,–
O=c1cc(-n2cccc2)sc2ccccc12 [2-pyrrolylthiochromone],–,–,–,–,not observed,36.7
